The values that follow come from ChEMBL document CHEMBL5500399, “Design, Synthesis, and Biological Evaluation of 1,2,4-Oxadiazole Derivatives Containing an Aryl Carboxylic Acid Moiety as Potent Sarbecovirus Papain-like Protease Inhibitors” (J Med Chem, 2024).

In assay [1] the test system is SARS-CoV-2. Put plainly: microbe, parasite or virus in culture. As to conditions: Severe acute respiratory syndrome coronavirus 2, 2019-nCoV, Vero C1008.
Assay [2] has as its system SARS-CoV-2. As to the kind of experiment: microbe, parasite or virus in culture. The note with it: Severe acute respiratory syndrome coronavirus 2, Omicron BA.1, Vero C1008.

Structures are written as SMILES.

`CC(c1nc(-c2ccc(-c3ccc(C(=O)O)s3)cc2)no1)c1cccc2ccccc12` (centres undefined): the EC50 in the assay with SARS-CoV-2 [1] turned out to be 5.4 µM; in the assay with SARS-CoV-2 [2], 25.2 µM.
For `Cc1ccc(-c2noc(C(C)c3ccc(-c4ccccc4)c(F)c3)n2)cc1NCc1ccc(C(=O)O)s1` (racemic) the same measures were 4.3 µM and 79.8 µM.
